Experimental findings from patent publication US20240393292A1, “ALLERGY ANTIGEN AND EPITOPE THEREOF” (HOYU CO., LTD., priority 2019, published 2024) are described below.

Entries after “also recorded” stand apart in the source; their conditions may differ.

Holding throughout (format): binding, human
Experiment [1] has as its system IgE antibodies from patients. The experiment in a line: Wheat epitope mapping (3): alanine/glycine scanning. The note with it: from analysis of epitope mapping (A) to (C); many samples. The protocol:
From the amino acid sequences identified above in (A), a library of peptide fragments in which amino-terminal amino acids were substituted one by one by alanine (or glycine when the original amino acid was alanine) according to a technique called alanine/glycine scanning (Non Patent Literature 5) was prepared by the same technique as described above. The presence or absence of binding of an IgE antibody present in the serum of a patient to each peptide fragment was measured by the same technique as described above.
Chemiluminescence intensity in images obtained by measurement was converted into a numeric value in the same manner as in (A). Numeric values determined from images obtained from secondary antibody measurement values were used as control values. The control value of each peptide was subtracted from numeric values determined from images obtained from results about the serum of 49 patients. When values obtained using the sequences (SEQ ID NOs: 29, 131, 191, 281, 346, 414, 493, 562, 640, 706, 776, 899, 974, 1010, 1089, 1142, 1166, 1209, 1257, 1297, 1367, 1403, 1508, 1566, 1598, 1608, 1685, 1753, 1789, 1836, 1895, 1977, 2004, 2027, 2068, 2154, 2217, 2265, 2309, 2342, 2419, 2491, 2545, 2613, 2631, 2674, 2701, 2774, 2809 and 2830) serving as the basis of alanine/glycine scanning were defined as 100%, it was determined that: a peptide having a value of the difference that was less than 30% had no binding activity against IgE antibodies; a peptide having a value of the difference that was 30% or more and less than 50% had binding activity, albeit poor, against IgE antibodies; a peptide having a value of the difference that was 50% or more and less than 70% had binding activity, albeit somewhat poor, against IgE antibodies; and a peptide having a value of the difference that was 70% or more had equivalent or good binding activity against IgE antibodies and was thus a peptide had remaining binding activity against IgE antibodies.
By analysis of the results of (A) to (C), common sequences important for exertion of original antigenicity were found in regions important for binding to IgE antibodies from patients, in the sequences serving as the basis of alanine/glycine scanning.

The subject of experiment [2] is IgE antibodies from patients having allergies to each food. The experiment in a line: Confirmation of epitope cross-reactivity by ELISA with biotinylated peptides. The source says:
Amino acids other than amino acids important for maintaining binding to IgE antibodies, in each of the epitope sequences found in the wheat proteins in Table 2 were defined as any given amino acid (X). NCBI was searched for proteins having the key sequences having the amino acid residues X in cooking ingredient allergens carried in common by each of the patients. As a result, an amino acid sequence contained in a sequence in each food described in the column “Food with which cross-reactivity was confirmed” in Table 2 was identified as one example.
The binding activity of peptides comprising the amino acid sequences described in the column “Synthesis sequence” and the rightmost column “SEQ ID NO” of Table 2 against IgE antibodies from patients having allergies to each food described in the column “Food with which cross-reactivity was confirmed” in Table 2 was confirmed by ELISA. The peptides were synthesized such that the peptides were N-terminally biotinylated by the Fmoc method.
To be specific, ELISA was carried out according to the following procedure. • (1) The concentrations of the biotinylated peptides were adjusted to 10 μg/mL with PBST (0.1% Tween 20). • (2) Each peptide solution was added at 20 μL to each well of a 384-well plate coated with streptavidin, and shaken at room temperature for one hour. After collection of the solution, the wells were washed with PBST five times. • (3) Pierce Protein-Free (PBS) Blocking Buffer (produced by Thermo) was added at 40 μL thereto and shaken at room temperature for one hour. After removal of the solution, the wells were washed with PBST five times. • (4) 2% serum/Canget SignalSolution I (produced by TOYOBO) was added at 20 μL thereto and shaken at room temperature for one hour. After removal of the solution, the wells were washed with PBST five times. • (5) A diluted secondary antibody solution (1:10000, Canget SignalSolution II (produced by TOYOBO)) was added at 20 μL thereto and shaken at room temperature for one hour. After removal of the solution, the wells were washed with PBST five times. • (6) 1-Step Ultra TMB-ELISA (produced by Thermo) was added at 20 μL thereto and shaken at room temperature for 15 minutes. • (7) 2 M H2SO4 was added at 20 μL thereto. Absorbance at 450 nm was measured.
Peptides having these amino acid sequences were prepared by the same procedure as described in Example 4 (A), and the presence or absence of binding thereto of IgE antibodies present in the serum of an allergic patient and the serum of a nonallergic subject was measured. The serum of two nonallergic subjects was measured, and values obtained by dividing the measurement values by an average value thereof were used.
The bar graph of each figure depicts “absorbance of the allergic patient/absorbance of the nonallergic patient (healthy subject)”. The names of the cooking ingredients described in each graph are the names of cooking ingredients containing a polypeptide comprising an amino acid sequence serving as the basis of each synthetic sequence used.
Background: In an ELISA, binding on a coated surface is turned into a signal by an enzyme label.

In experiment [3] the test system is IgE antibody in the serum of a wheat-allergic patient. The experiment in a line: Immunoblotting of two-dimensional electrophoresis pattern of wheat proteins with patient serum. The note with it: immunoblot of 2D electrophoresis; compared with serum of non-wheat-allergic subject. Here is the method:
Identification of antigens by immunoblotting was carried out by taking all the steps up to the step of “Second-dimensional SDS-PAGE” as described above in Example 1, followed by the steps of “Transfer to membrane”, “Immunoblotting” and “Analysis” as described below.
Transfer to membrane was done using the following transfer system and transfer buffer. • Transfer system: XCell SureLock Mini-Cell and XCell II Blot Module (produced by Life Technologies) • Transfer buffer: NuPAGE Transfer Buffer (×20) (produced by Life Technologies), used in a form diluted […] with milliQ water. […]
The immunoblots obtained with the serum from the wheat-allergic patient were compared with those obtained with the control serum from the non-wheat-allergic subject. For protein present in wheat, in immunoblotting using the serum from the wheat-allergic patient, 16 spots were detected (FIG. 2), which are different from the spots detected when the serum of the non-wheat-allergic subject was used and different from those of the known wheat allergen proteins. […]
For orientation: In western blotting, separated proteins are transferred to a membrane and probed.

Setting [4] is: synthetic sequence, Graph No. 3, epitope of patient P8.

Consider “SEQ ID NO: 61: polypeptide consisting of 4 amino acid residues, among sequences of (E1) (QPIQ; REGION 1..4: note = epitope)”, for which the “short polypeptide confirmed as epitope binding to IgE antibodies” value (shortened to “short polypeptide confirmed”) in experiment [1] is “confirmed as epitopes binding to IgE antibodies in many samples”. On to “SEQ ID NO: 222: polypeptide consisting of 4 amino acid residues, among sequences of (E3) (QQPF; REGION 1..4: note = epitope)”, for which the “short polypeptide confirmed” value in experiment [1] is recorded as “confirmed as epitopes binding to IgE antibodies in many samples”.

Regarding “SEQ ID NO: 58: polypeptide consisting of 4 amino acid residues, among sequences of (E1) (PIQQ; REGION 1..4: note = epitope)”, in experiment [1], the “short polypeptide confirmed” value was “confirmed as epitopes binding to IgE antibodies in many samples”.

“QPIQ (REGION 1..4: note = epitope) [SEQ ID NO: 30]”: in experiment [1], the “short polypeptide confirmed” value is “confirmed as epitopes binding to IgE antibodies in many samples”. The same measure, in the same setting: the value for “SEQ ID NO: 345: polypeptide consisting of 4 amino acid residues, among sequences of (E4) (QPFP; REGION 1..4: note = epitope)” was “confirmed as epitopes binding to IgE antibodies in many samples”.

Take “SEQ ID NO: 238: polypeptide consisting of 4 amino acid residues, among sequences of (E3) (PFPQ; REGION 1..4: note = epitope)”: the “short polypeptide confirmed” value in experiment [1] is given as “confirmed as epitopes binding to IgE antibodies in many samples”. Turning to “2923 (KRVIERFEK; REGION 1..9: note = epitope) [compound 2923]”, the “Food in which cross-reactivity was confirmed” value (shortened to “Food”) in experiment [2] (setting [4]) is “Wheat/barley”.

Consider “2910 (SLAEYTVRTLQRTVP; REGION 1..15: note = epitope) [compound 2910]”, for which the “Food” value in experiment [2] (Graph No. 2, synthetic sequence listed under patient P16) was “Wheat/rye/barley/; also recorded: timothy”. Turning to “2922 (GIDKRV; REGION 1..6: note = epitope) [compound 2922]”, the “Food” value in experiment [2] (setting [4]) is on record as “Wheat/barley”.

B1: Globulin 3 (protein, listed as Triticum aestivum)
chain: MATRARVTIPLLFLLGTSLLFAAAVSASHDEEEDRRGGRSLQQCVQRCQQDRPRYSHARCVQECRDDQQQHGRHEQEEQGRGHGRHGEGEREEEQGRGRGRHGQGEREEEQGRGRGRRGEGERDEEHGDGRRPYVFGPRSFRRIIRSDHGFVKALRPFDEVSRLLRGIRNYRVAIMEVNPRAFVVPGLTDADGVGYVAQGEGVLTVIENGEKRSYTVRQGDVIVAPAGSIMHLANTDGRRKLVIAKILHTISVPGKFQYFSAKPLLASLSKRVLTAALKTSDERLGSLLGSRQGKEEEEKSISIVRASEEQLRELRRQASEGDQGHHWPLPPFRGDSRDTFNLLEQRPKIANRHGRLYEADARSFHALAQHDVRVAVANITPGSMTAPYLNTQSFKLAVVLEGEGEVEIVCPHLGRDSERREQEHGKGRWRSEEEEDDRRQQRRRGSGSESEEEQDQQRYETVRARVSRGSAFVVPPGHPVVEIASSRGSSNLQVVCFEINAERNERVWLAGRNNVIAKLDDPAQELTFGRPAREVQEVFRAKDQQDEGFVAGPEQQQEHERGDRRRGDRGRGDEAVEAFLRMATAAL
modifications: posttranslational modification
notes: same protein as spot 12, differing posttranslational modification
For B1, in experiment [3], the “specific binding of IgE antibody in serum of wheat-allergic patient to protein spot” value is “binding to IgE antibodies was confirmed”.

B2: Gamma-gliadin (protein, listed as Triticum aestivum)
chain: MKIFMVFALLVASTTITTATAQLDPRIHDQERPQQSFLQQQPLIQQQPYPPQEPQQPLFPQKEPQQPFPLQQPQYQQQQPYPQQPLPQEQLPQQHLFPQQPPQQQFPQQMPLPHQQQTFPQQQQQQQQQEQLPQQLPQFPQQQPFSQYQQPLTQQPYSQEQPLPQQQPSVEEKQQLNLCKEFLLQQCNPEEKLSLLQSVIPFLRPKTSQQNSCQLKRLQCCRQLAHISEPSRCPAIHNIVHAIVMQQQHVDRGFGQPQPQQLGQEMPMQPQHQLGQHSILPQQLAQYKLVRLLVIQTLPMLCNVHVPSDCYTITAPFGSMTAYNGGQ
modifications: posttranslational modification
notes: same protein as spot 16, differing posttranslational modification
As to B2, in experiment [3], the “specific binding of IgE antibody in serum of wheat-allergic patient to protein spot” value is “binding to IgE antibodies was confirmed”.
